# In ChEMBL document CHEMBL4138123, “Design, synthesis and biological evaluation of novel pyrazolochalcones as potential modulators of PI3K/Akt/mTOR pathway and inducers of apoptosis in breast cancer cells” (Eur J Med Chem, 2017):
# How the values were obtained:
# Assay type in all cases: functional
# SN12C = experiment: Cytotoxicity against human SN12C cells assessed as cell growth at 0.01 uM after 48 hrs by sulforhodamine B assay relative to control; conditions: read-out: Activity
# K562 = experiment: Cytotoxicity against human K562 cells assessed as cell growth at 0.01 uM after 48 hrs by sulforhodamine B assay relative to control; conditions: K562, 48 h, read-out: Activity
# HCT-116 = experiment: Cytotoxicity against human HCT116 cells assessed as cell growth at 0.01 uM after 48 hrs by sulforhodamine B assay relative to control; conditions: HCT-116, 48 h, read-out: Activity
# 786-0 = experiment: Cytotoxicity against human 786-0 cells assessed as growth inhibition after 48 hrs by sulforhodamine B assay; conditions: 786-0, 48 h
# NCI-H522 [1] = experiment: Cytotoxicity against human NCI-H522 cells assessed as cell growth at 100 uM after 48 hrs by sulforhodamine B assay relative to control; conditions: NCI-H522, 48 h, read-out: Activity
# SF-268 = experiment: Cytotoxicity against human SF268 cells assessed as cell growth at 10 uM after 48 hrs by sulforhodamine B assay relative to control; conditions: SF-268, 48 h, read-out: Activity
# MDA-MB-231 [2] = experiment: Cytotoxicity against human MDA-MB-231 cells assessed as growth inhibition after 48 hrs by sulforhodamine B assay; conditions: MDA-MB-231, 48 h
# ACHN = experiment: Cytotoxicity against human ACHN cells assessed as cell growth at 0.01 uM after 48 hrs by sulforhodamine B assay relative to control; conditions: read-out: Activity
# SW-620 = experiment: Cytotoxicity against human SW620 cells assessed as cell growth at 1 uM after 48 hrs by sulforhodamine B assay relative to control; conditions: SW-620, 48 h, read-out: Activity
# UACC-257 = experiment: Cytotoxicity against human UACC257 cells assessed as cell growth at 0.01 uM after 48 hrs by sulforhodamine B assay relative to control; conditions: UACC-257, 48 h, read-out: Activity
# MOLT-4 = experiment: Cytotoxicity against human MOLT4 cells assessed as growth inhibition after 48 hrs by sulforhodamine B assay; conditions: MOLT-4, 48 h
# MCF7 = experiment: Cytotoxicity against human MCF7 cells assessed as cell growth at 100 uM after 48 hrs by sulforhodamine B assay relative to control; conditions: MCF7, 48 h, read-out: Activity
# MDA-MB-435 = experiment: Cytotoxicity against human MDA-MB-435 cells assessed as cell growth at 0.1 uM after 48 hrs by sulforhodamine B assay relative to control; conditions: MDA-MB-435, 48 h, read-out: Activity
# A549 = experiment: Cytotoxicity against human A549/ATCC cells assessed as cell growth at 1 uM after 48 hrs by sulforhodamine B assay relative to control; conditions: A549, 48 h, read-out: Activity
# SF-539 [3] = experiment: Cytotoxicity against human SF539 cells assessed as cell growth at 0.1 uM after 48 hrs by sulforhodamine B assay relative to control; conditions: SF-539, 48 h, read-out: Activity
# SNB-19 = experiment: Cytotoxicity against human SNB19 cells assessed as cell growth at 0.01 uM after 48 hrs by sulforhodamine B assay relative to control; conditions: SNB-19, 48 h, read-out: Activity
# SK-MEL-28 = experiment: Cytotoxicity against human SK-MEL-28 cells assessed as growth inhibition after 48 hrs by sulforhodamine B assay; conditions: SK-MEL-28, 48 h
# UACC-62 = experiment: Cytotoxicity against human UACC62 cells assessed as growth inhibition after 48 hrs by sulforhodamine B assay; conditions: UACC-62, 48 h
# HCC 2998 [4] = experiment: Cytotoxicity against human HCC2998 cells assessed as cell growth at 10 uM after 48 hrs by sulforhodamine B assay relative to control; conditions: HCC 2998, 48 h, read-out: Activity
# CAKI-1 = experiment: Cytotoxicity against human Caki1 cells assessed as cell growth at 10 uM after 48 hrs by sulforhodamine B assay relative to control; conditions: CAKI-1, 48 h, read-out: Activity
# OVCAR-5 [5] = experiment: Cytotoxicity against human OVCAR5 cells assessed as cell growth at 10 uM after 48 hrs by sulforhodamine B assay relative to control; conditions: OVCAR-5, 48 h, read-out: Activity
# RXF 393 = experiment: Cytotoxicity against human RXF393 cells assessed as growth inhibition after 48 hrs by sulforhodamine B assay; conditions: RXF 393, 48 h
# U-251 = experiment: Cytotoxicity against human U251 cells assessed as cell growth at 100 uM after 48 hrs by sulforhodamine B assay relative to control; conditions: U-251, 48 h, read-out: Activity
# OVCAR-5 [6] = experiment: Cytotoxicity against human OVCAR5 cells assessed as cell growth at 0.1 uM after 48 hrs by sulforhodamine B assay relative to control; conditions: OVCAR-5, 48 h, read-out: Activity
# MDA-MB-231 [7] = experiment: Cytotoxicity against human MDA-MB-231 cells assessed as cell growth at 1 uM after 48 hrs by sulforhodamine B assay relative to control; conditions: MDA-MB-231, 48 h, read-out: Activity
# SF-539 [8] = experiment: Cytotoxicity against human SF539 cells assessed as growth inhibition after 48 hrs by sulforhodamine B assay; conditions: SF-539, 48 h
# HCC 2998 [9] = experiment: Cytotoxicity against human HCC2998 cells assessed as cell growth at 100 uM after 48 hrs by sulforhodamine B assay relative to control; conditions: HCC 2998, 48 h, read-out: Activity
# UO-31 = experiment: Cytotoxicity against human UO31 cells assessed as cell growth at 0.1 uM after 48 hrs by sulforhodamine B assay relative to control; conditions: UO-31, 48 h, read-out: Activity
# RPMI-8226 = experiment: Cytotoxicity against human RPMI8226 cells assessed as cell growth at 0.1 uM after 48 hrs by sulforhodamine B assay relative to control; conditions: RPMI-8226, 48 h, read-out: Activity
# NCI-H460 = experiment: Cytotoxicity against human NCI-H460 cells assessed as growth inhibition after 48 hrs by sulforhodamine B assay; conditions: NCI-H460, 48 h
# NCI-H522 [10] = experiment: Cytotoxicity against human NCI-H522 cells assessed as cell growth at 0.1 uM after 48 hrs by sulforhodamine B assay relative to control; conditions: NCI-H522, 48 h, read-out: Activity
# SK-MEL-5 = experiment: Cytotoxicity against human SK-MEL-5 cells assessed as cell growth at 0.01 uM after 48 hrs by sulforhodamine B assay relative to control; conditions: SK-MEL-5, 48 h, read-out: Activity
# OVCAR-3 = experiment: Cytotoxicity against human OVCAR3 cells assessed as growth inhibition after 48 hrs by sulforhodamine B assay; conditions: OVCAR-3, 48 h
# CCRF-CEM = experiment: Cytotoxicity against human CCRF-CEM cells assessed as cell growth at 100 uM after 48 hrs by sulforhodamine B assay relative to control; conditions: read-out: Activity
smiles,measurement,setting,value
COc1ccc(C(=O)/C=C/c2cc(-c3ccc4c(c3)OCO4)n[nH]2)cc1OC,growth at 0.01 µM,SN12C,92%
same,growth at 0.01 µM,K562,96%
same,growth at 0.01 µM,HCT-116,105%
same,LC50,786-0,42.3 µM
same,TGI,786-0,11.4 µM
same,growth at 100 µM,NCI-H522 [1],-89%
same,growth at 10 µM,SF-268,-12%
same,GI50,MDA-MB-231 [2],2.44 µM
same,LC50,MDA-MB-231 [2],31.7 µM
same,TGI,MDA-MB-231 [2],7.39 µM
same,growth at 0.01 µM,ACHN,101%
same,growth at 1 µM,SW-620,92%
same,growth at 0.01 µM,UACC-257,91%
same,TGI,MOLT-4,10.3 µM
same,CC50,MOLT-4; read-out: LC50 (the source's name),> 100 µM
same,growth at 100 µM,MCF7,-48%
same,growth at 0.1 µM,MDA-MB-435,99%
same,growth at 1 µM,A549,85%
same,growth at 0.1 µM,SF-539 [3],95%
same,growth at 0.01 µM,SNB-19,91%
same,LC50,SK-MEL-28,48.6 µM
same,TGI,SK-MEL-28,19.3 µM
same,LC50,UACC-62,40.9 µM
same,TGI,UACC-62,14.8 µM
same,growth at 10 µM,HCC 2998 [4],27%
same,growth at 10 µM,CAKI-1,-51%
same,growth at 10 µM,OVCAR-5 [5],17%
same,LC50 (concentration killing 50% of cells),RXF 393,15.9 µM
same,TGI,RXF 393,5.39 µM
same,growth at 100 µM,U-251,-91%
same,growth at 0.1 µM,OVCAR-5 [6],95%
same,growth at 1 µM,MDA-MB-231 [7],90%
same,LC50 (concentration killing 50% of cells),SF-539 [8],11.9 µM
same,TGI,SF-539 [8],4.47 µM
same,growth at 100 µM,HCC 2998 [9],-86%
same,growth at 0.1 µM,UO-31,81%
same,growth at 0.1 µM,RPMI-8226,97%
same,LC50,NCI-H460,9.07 µM
same,TGI,NCI-H460,4.05 µM
same,growth at 0.1 µM,NCI-H522 [10],87%
same,growth at 0.01 µM,SK-MEL-5,96%
same,LC50,OVCAR-3,14.3 µM
same,TGI,OVCAR-3,4.61 µM
same,growth at 100 µM,CCRF-CEM,-13%
